One molecule from patent publication US20220213052A1, “INHIBITORS OF RNA-BINDING PROTEINS, COMPOSITIONS THEREOF, AND THERAPEUTIC USES THEROF” (The University of North Carolina at Chapel Hill, priority 2019, published 2022) can be followed below.

Experiment [1] deals with T1, full-length human HuR protein (Homo sapiens, UniProt Q15717).
T1 construct: full-length human HuR protein was produced by the KU COBRE-PSF Protein Purification Group; made in house
Nature of the experiment: FP assay of HuR-Msi1 ARE binding inhibition. The note with it: HuR-Msi1 ARE interaction; read-out: HuR Ki via FP assay. The method in brief:
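Fluorescence polarization competition using full-length human HuR protein and a 3′-fluorescein-labelled 16-nt Msi1 ARE RNA. A fluorescein-labelled degenerate 16-nt RNA served as negative control.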

For another experiment, the system named is MDA-MB-231 cells. Nature of the experiment: Matrigel invasion assay. In kind it is cell-based. The note with it: 10 μM; 24 h pretreatment, 20 h incubation. As for the experimental part:
To examine the anti-metastatic effect of compounds of the present technology, an invasion assay using Matrigel Invasion Chambers coated with Matrigel Matrix was performed. To perform the assays, MDA-MB-231 cells pretreated with compounds for 24 hours are added to the chambers and then incubated for 20 hours. Cells that remained on the upper surface of the chamber are completely removed with a cotton swab. Cells that emigrated or invaded through the membrane/Matrigel to the bottom of the chamber were fixed and stained with 0.2% crystal violet and photographed.

The target in experiment [2] is T2, HuR-bound target mRNAs in MDA-MB-231 cells (Homo sapiens, UniProt Q15717).
T2 construct: endogenous in cells; host or cells: MDA-MB-231
T2 sequence (Q15717 2-326 limits assumed): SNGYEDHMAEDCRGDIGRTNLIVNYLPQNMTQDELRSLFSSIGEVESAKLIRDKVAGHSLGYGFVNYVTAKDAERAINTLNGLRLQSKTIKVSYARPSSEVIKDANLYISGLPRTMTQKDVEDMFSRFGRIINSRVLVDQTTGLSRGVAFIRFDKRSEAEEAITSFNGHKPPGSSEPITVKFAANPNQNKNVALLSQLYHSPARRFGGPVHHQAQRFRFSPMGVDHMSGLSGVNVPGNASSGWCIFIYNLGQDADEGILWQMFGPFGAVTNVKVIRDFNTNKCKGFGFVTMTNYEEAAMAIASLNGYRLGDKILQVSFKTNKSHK
Nature of the experiment: Ribonucleoprotein immunoprecipitation (RNP-IP) pull-down assay. Type of experiment: cell-based. The note with it: 10 μM. The method, then: Pull-down Assay #2—Ribonuleoprotein Immunoprecipitation (RNP-IP): Cells with HuR overexpression were treated with compounds, then the cell cytoplasmic lysates collected using NE-PER Nuclear and Cytoplasmic Extraction Kit (Thermo Scientific), then the cell cytoplasmic lysates incubated with anti-HuR antibody, and subsequently Protein G agarose beads (from Roche) added to pull down HuR protein. The HuR-bound target mRNAs pulled down were measured by qRT-PCR using a reported method (Ji, Q., et al., MicroRNA miR-34 inhibits human pancreatic cancer tumor-initiating cells. PLoS One, 2009. 4(8): p. e6816, incorporated herein by reference). Mouse IgG will be used as negative control. Compounds of the present technology block the target mRNAs pulled down by HuR antibody.

The target in experiment [3] is T3, HuR protein bound to ARE^Msi1-Biotin (Homo sapiens, UniProt Q15717).
T3 construct: endogenous in cells; cytoplasmic lysate
T3 sequence (Q15717 2-326 limits assumed): as above
Nature of the experiment: RNA immunoprecipitation (RNA-IP) pull-down assay. Type of experiment: cell-based. The note with it: 20 μM. As for the experimental part: Pull-down Assay #1—RNA Immunoprecipitation (RNA-IP): Cells with HuR overexpression will be treated with compounds, then the cell cytoplasmic lysates were collected using NE-PER Nuclear and Cytoplasmic Extraction Kit (Thermo Scientific), and subsequently to the cell cytoplasmic lysates were added the biotinylated target ARE oligo from Msi1 mRNA (ARE^Msi1-Biotin). Following this, streptavidin beads were added to pull down HuR protein bound to ARE^Msi1-Biotin. Unlabeled target AREs used as positive control. Compounds of the present technology block the HuR pull-down by the biotinylated ARE oligo, illustrating inhibition of the HuR-mRNA interaction. For example, using 20 μM KH-39, 20 μM KH-56, and 10 μM KH-58 in such a RNA-IP assay provided the data illustrated in FIG. 5. The numbers immediately below the pictured bands in FIG. 5 are calculated by diving the band intensity of the particular sample by the band intensity of the DMSO treated sample (entry 3). […]

As a reminder, the Ki is a measure of affinity in units of concentration, obtained from inhibition or displacement.

T1 sequence (Q15717 whole entry): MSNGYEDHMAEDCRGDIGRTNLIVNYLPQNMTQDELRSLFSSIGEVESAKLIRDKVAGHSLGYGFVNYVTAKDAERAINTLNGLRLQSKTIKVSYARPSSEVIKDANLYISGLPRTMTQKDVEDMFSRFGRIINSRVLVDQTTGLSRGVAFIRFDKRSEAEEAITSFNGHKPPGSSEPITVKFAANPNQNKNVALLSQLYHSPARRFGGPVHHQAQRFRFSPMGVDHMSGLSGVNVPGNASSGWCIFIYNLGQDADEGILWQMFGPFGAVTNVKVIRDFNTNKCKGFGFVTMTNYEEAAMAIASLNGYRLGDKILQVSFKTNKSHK

For the molecule `CC(C)(C)c1ccc(C(=O)Nc2ccc3[nH]c(C(=O)NO)cc3c2)cc1` [KH-39, 5-(4-(tert-butyl)benzamido)-N-hydroxy-1H-indole-2-carboxamide], the inhibition constant (Ki) in experiment [1] came to 650 nM. The MDA-MB-231 cell invasion entry with MDA-MB-231 cells is “clearly inhibited MDA-MB-231 cell invasion”. Moreover, the “HuR pull-down of target mRNAs” value in experiment [2] was “at least partially block HuR pull-down of target mRNAs”. Also, in experiment [3], the “ARE^Msi1-Biotin mediated pull-down of HuR protein” value was “block ARE^Msi1-Biotin mediated pull-down of HuR protein”.
